Test results: patent publication US7939509B2, “Partial and full agonists of A1 adenosine receptors” (Gilead Sciences, Inc., priority 2002, dated 2011)
“Also recorded” adds a separate entry of the source.

Tests used:
Type in all cases: in vivo, rat
[1] = system: rats fed high fat diet; assay: Oral glucose tolerance test after a single dose in high fat diet rats; settings: 1 mg/kg oral gavage 15 min before 2 gm/kg glucose load, HF rats
Experimental: Data is presented as mean±SEM from number of animals indicated in the parenthesis for each group. […] All experimental procedures were performed under a protocol approved by the IACUC (CV Therapeutics, Inc.) and in accordance with the recommendations set forth in the Guide for the Care and Use of Laboratory Animals published by the National Research Council. Male Sprague-Dawley rats (225-250 gm) with either one or two indwelling catheters (carotid and jugular) were obtained from Charles River Laboratories (Wilmington, Mass.). Animals were housed 1 per cage in a room maintained on a 12 h light/dark cycle (light on 06.00-18.00 h) under constant temperature (22-25° C.) and with ad libitum access to food and water. Rats on normal diet (Chow) were fed standard laboratory chow (12% fat, 60% carbohydrate, and 28% protein) throughout the study, while animals in the high fat (HF) diet group were given a diet (TD88137 from Harlan Teklad, Madison, Wis.) containing 42% fat, 43% carbohydrate, and 15% protein. […] On the day of the experiment, animals were put in metabolic cages and left undisturbed to acclimate to the environment for 1-2 hrs. An infusion set (21 G×¾″, 0.8×19 mm U.T.W., 3½″, 9 cm tubing, volume 0.15 ml) was connected to the arterial catheter for blood sampling. A 1% sodium citrate saline solution was used to flush the lines. A pre-treatment blood sample was obtained from each animal to determine baseline values for glucose, insulin, FFA and TG. Blood samples were collected into plasma and serum separator tubes (Becton Dickinson, Franklin Lakes, N.J.) at pre-determined time points. Oral glucose tolerance test (OGTT) was performed by giving 2 gm/kg of glucose load. Compound A was given via an oral gavage 15 minutes prior to the glucose load. […] Statistical analysis of data from experiments with 2 treatment groups was performed using the unpaired Student's t-test. One way analysis of variance (ANOVA) followed by Newman-Keuls posthoc analysis was used for multiple comparisons. Data form OGTT was analyzed by calculating area under the curve (AUC) using prism graphpad software. […]

[2] = system: rats fed high fat diet; assay: Chronic 2 week treatment: fasting glucose, insulin, FFA, TG in high fat diet rats; settings: 5 mg/kg SC for 2 weeks, HF rats
Experimental: Animals were fasted overnight before taking samples. Compound A was given via SC injection for 2 weeks at a dose of 5 mg/kg. Data is presented as mean±SEM from number of animals indicated below each bar. […] Male Sprague-Dawley rats (225-250 gm) with either one or two indwelling catheters (carotid and jugular) were obtained from Charles River Laboratories (Wilmington, Mass.). Animals were housed 1 per cage in a room maintained on a 12 h light/dark cycle (light on 06.00-18.00 h) under constant temperature (22-25° C.) and with ad libitum access to food and water. Rats on normal diet (Chow) were fed standard laboratory chow (12% fat, 60% carbohydrate, and 28% protein) throughout the study, while animals in the high fat (HF) diet group were given a diet (TD88137 from Harlan Teklad, Madison, Wis.) containing 42% fat, 43% carbohydrate, and 15% protein. The anti-lipolytic effects of Compound A (see chemical name below) were studied in awake rats. On the day of the experiment, animals were put in metabolic cages and left undisturbed to acclimate to the environment for 1-2 hrs. An infusion set (21 G×¾″, 0.8×19 mm U.T.W., 3½″, 9 cm tubing, volume 0.15 ml) was connected to the arterial catheter for blood sampling. A 1% sodium citrate saline solution was used to flush the lines. A pre-treatment blood sample was obtained from each animal to determine baseline values for glucose, insulin, FFA and TG. Blood samples were collected into plasma and serum separator tubes (Becton Dickinson, Franklin Lakes, N.J.) at pre-determined time points. […] For chronic experiments Compound A was administered twice a day via subcutaneous injection at a dose of 5 mg/kg for 2 weeks. […] Statistical analysis of data from experiments with 2 treatment groups was performed using the unpaired Student's t-test. One way analysis of variance (ANOVA) followed by Newman-Keuls posthoc analysis was used for multiple comparisons. […] Differences between/among treatment groups were considered to be significant when the probability of their occurrence by chance alone was <0.05.

[3] = system: awake rats; assay: Serum triglyceride (TG) levels in overnight-fasted awake rats
Experimental: All experimental procedures were performed under a protocol approved by the Institutional Animal Care and Use Committee of CV Therapeutics, Inc., and in accordance with the recommendations set forth in the Guide for the Care and Use of Laboratory Animals published by the National Research Council. Male Sprague-Dawley rats (225-250 gm) with either one or two indwelling catheters (carotid and jugular) were purchased from Charles River Laboratories (Wilmington, Mass.). Animals were housed 1 per cage in a room maintained on a 12 h light/dark cycle (light on 06.00-18.00 h) under constant temperature (22-25° C.) and with ad libitum access to food and water.
The anti-lipolytic effects of Compound A were studied in awake rats. Animals were fasted overnight before experimental use. On the day of the experiment, animals were put in metabolic cages and left undisturbed to acclimate to the environment for 1-2 hrs. An infusion set (21 G×¾″, 0.8×19 mm U.T.W., 3½″, 9 cm tubing, volume 0.15 ml) was connected to the arterial catheter for blood sampling. A 1% sodium citrate saline solution was used to flush the lines. A pre-treatment blood sample was obtained from each animal to determine baseline values for FFA and TG. Compound A was given via oral gavage, sc injection, iv injection, or iv infusion, as described, for each different series of experiments. Blood samples were collected into serum separator tubes (Becton Dickinson, Franklin Lakes, N.J.) at pre-determined times, Blood was allowed to clot, and then centrifuged at 8000 rpm for 4 min at 4° C. The serum was stored at −80° C. and was thawed at 4° C. for determinations of FFA and TG contents.
Compound A was synthesized by the Department of Medicinal and Bio-Organic chemistry of CV Therapeutics, Inc. Sodium citrate and Triton WR1339 were purchased from Sigma (St. Louis, Mo.). Nicotinic acid and PEG 400 were purchased from VWR (by EMD Chemicals). Triton WR 1339 was diluted in warm saline (˜37° C.) with frequent vortexing. Nicotinic acid was dissolved in saline. Compound A was dissolved in PEG 400, and then diluted with distilled water to make a 20% PEG drug solution. Serum FFA and TGs were measured using commercial kits from Wako Chemicals, Richmond, Va. Glucose and Insulin were measured using commercial kits from Wako Chemicals USA (Richmond, Va.).
All data are reported as mean±SEM. Statistical analysis of data from experiments with 2 treatment groups was performed using the unpaired Student's t-test. Two way analysis of variance followed by Bonferroni's test was used for multiple comparisons. Differences among treatment groups were considered to be significant when the probability of their occurrence by chance alone was <0.05.

[4] = system: awake rats; assay: Anti-lipolytic effect: serum free fatty acids (FFA) in overnight-fasted awake rats
Experimental: All experimental procedures were performed under a protocol approved by the Institutional Animal Care and Use Committee of CV Therapeutics, Inc., and in accordance with the recommendations set forth in the Guide for the Care and Use of Laboratory Animals published by the National Research Council. Male Sprague-Dawley rats (225-250 gm) with either one or two indwelling catheters (carotid and jugular) were purchased from Charles River Laboratories (Wilmington, Mass.). Animals were housed 1 per cage in a room maintained on a 12 h light/dark cycle (light on 06.00-18.00 h) under constant temperature (22-25° C.) and with ad libitum access to food and water. The anti-lipolytic effects of Compound A were studied in awake rats. Animals were fasted overnight before experimental use. On the day of the experiment, animals were put in metabolic cages and left undisturbed to acclimate to the environment for 1-2 hrs. An infusion set (21 G×¾″, 0.8×19 mm U.T.W., 3½″, 9 cm tubing, volume 0.15 ml) was connected to the arterial catheter for blood sampling. A 1% sodium citrate saline solution was used to flush the lines. A pre-treatment blood sample was obtained from each animal to determine baseline values for FFA and TG. Compound A was given via oral gavage, sc injection, iv injection, or iv infusion, as described, for each different series of experiments. Blood samples were collected into serum separator tubes (Becton Dickinson, Franklin Lakes, N.J.) at pre-determined times, Blood was allowed to clot, and then centrifuged at 8000 rpm for 4 min at 4° C. The serum was stored at −80° C. and was thawed at 4° C. for determinations of FFA and TG contents. […] Sodium citrate and Triton WR1339 were purchased from Sigma (St. Louis, Mo.). Nicotinic acid and PEG 400 were purchased from VWR (by EMD Chemicals). Triton WR 1339 was diluted in warm saline (˜37° C.) with frequent vortexing. […] Compound A was dissolved in PEG 400, and then diluted with distilled water to make a 20% PEG drug solution. Serum FFA and TGs were measured using commercial kits from Wako Chemicals, Richmond, Va. Glucose and Insulin were measured using commercial kits from Wako Chemicals USA (Richmond, Va.). All data are reported as mean±SEM. Statistical analysis of data from experiments with 2 treatment groups was performed using the unpaired Student's t-test. Two way analysis of variance followed by Bonferroni's test was used for multiple comparisons.

[5] = system: rats fed high fat diet; assay: Oral glucose tolerance test after 2 week treatment in high fat diet rats; settings: 5 mg/kg SC twice a day for 2 weeks, HF rats
Experimental: Animals were fasted overnight before taking samples. Compound A was given twice daily via a SC injection for 2 weeks at a dose of 5 mg/kg. Data is presented as mean±SEM from number of animals indicated in the parenthesis for each group. […] All experimental procedures were performed under a protocol approved by the IACUC (CV Therapeutics, Inc.) and in accordance with the recommendations set forth in the Guide for the Care and Use of Laboratory Animals published by the National Research Council. Male Sprague-Dawley rats (225-250 gm) with either one or two indwelling catheters (carotid and jugular) were obtained from Charles River Laboratories (Wilmington, Mass.). Animals were housed 1 per cage in a room maintained on a 12 h light/dark cycle (light on 06.00-18.00 h) under constant temperature (22-25° C.) and with ad libitum access to food and water. Rats on normal diet (Chow) were fed standard laboratory chow (12% fat, 60% carbohydrate, and 28% protein) throughout the study, while animals in the high fat (HF) diet group were given a diet (TD88137 from Harlan Teklad, Madison, Wis.) containing 42% fat, 43% carbohydrate, and 15% protein. […] On the day of the experiment, animals were put in metabolic cages and left undisturbed to acclimate to the environment for 1-2 hrs. An infusion set (21 G×¾″, 0.8×19 mm U.T.W., 3½″, 9 cm tubing, volume 0.15 ml) was connected to the arterial catheter for blood sampling. A 1% sodium citrate saline solution was used to flush the lines. A pre-treatment blood sample was obtained from each animal to determine baseline values for glucose, insulin, FFA and TG. Blood samples were collected into plasma and serum separator tubes (Becton Dickinson, Franklin Lakes, N.J.) at pre-determined time points. Oral glucose tolerance test (OGTT) was performed by giving 2 gm/kg of glucose load. […] For chronic experiments Compound A was administered twice a day via subcutaneous injection at a dose of 5 mg/kg for 2 weeks. […] Data form OGTT was analyzed by calculating area under the curve (AUC) using prism graphpad software. […]

SMILES: O[C@@H]1[C@H](O)[C@@H](CSc2ccccc2F)O[C@H]1n1cnc2c(N[C@@H]3CCC[C@H]3O)ncnc21 [Compound A, 2-{6-[((1R,2R)-2-hydroxycyclopentyl)amino]purin-9-yl}(4S,5S,2R,3R)-5-[(2-fluorophenylthio)methyl]oxolane-3,4-diol]
- total glucose response area in OGTT [1]: no differences
- total insulin response area (AUC) in OGTT [1]: significantly (p<0.05) decreased; also recorded: no different than the insulin response of chow-fed rats given vehicle
- fasting FFA concentration vs placebo [2]: significantly lower
- fasting TG concentration vs placebo [2]: significantly lower
- fasting glucose concentration vs placebo [2]: no significant differences
- fasting insulin concentration vs placebo [2]: significantly lower
- decrease in TG levels ([3]; 2.5 mg/kg oral gavage): 36%
- serum TG level ([3]; 2.5 mg/kg oral gavage, from 54±4 mg/dl, p<0.05): 35 ± 4 mg/dL
- reduction in TG levels compared to vehicle-treated rats ([3]; 5 mg/kg oral gavage): 41%
- serum TG level ([3]; 5 mg/kg oral gavage, p<0.01): 32 ± 4 mg/dL
- reduction in TG levels compared to vehicle-treated rats ([3]; 10 mg/kg oral gavage): 58%
- serum TG level ([3]; 10 mg/kg oral gavage, p<0.01): 23 ± 1 mg/dL
- reduction of serum triglyceride levels, dose dependence ([3]; 2.5, 5, 10 mg/kg oral gavage): dose-dependent manner
- maximal decrease in FFA levels ([4]; 1 mg/kg iv bolus): 54±5%
- FFA level after treatment ([4]; 1 mg/kg iv bolus, from 0.79±0.04 mM, p<0.001): 0.36 ± 0.05 mM
- FFA level after first iv injection ([4]; 1 mg/kg iv, first of three repeated injections, baseline 0.88±0.02 mM): 0.35 ± 0.04 mM
- FFA level after second iv injection ([4]; 1 mg/kg iv, second of three repeated injections, baseline 0.88±0.02 mM): 0.35 ± 0.03 mM
- FFA level after third iv injection ([4]; 1 mg/kg iv, third of three repeated injections, baseline 0.88±0.02 mM): 0.38 ± 0.03 mM
- decrease in FFA below baseline ([4]; 2.5 mg/kg oral gavage): 31%
- FFA level after treatment ([4]; 2.5 mg/kg oral gavage, from baseline 0.7±0.05 mM, p<0.05): 0.5 ± 0.03 mM
- decrease in FFA levels ([4]; 5 mg/kg oral gavage): 47%
- FFA level after treatment ([4]; 5 mg/kg oral gavage, from 0.8±0.04 mM, p<0.01): 0.4 ± 0.03 mM
- decrease in FFA levels ([4]; 10 mg/kg oral gavage): 57%
- FFA level after treatment ([4]; 10 mg/kg oral gavage, from 0.68±0.04 mM, p<0.001): 0.29 ± 0.02 mM
- duration of the effect to suppress lipolysis ([4]; 2.5, 5, 10 mg/kg oral gavage): dose-dependent
- lowering of FFA levels, dose dependence ([4]; 2.5, 5, 10 mg/kg oral gavage): dose-dependent manner
- rebound increase of FFA levels ([4]; after iv bolus): not observed
- acute tachyphylaxis of the FFA lowering effect ([4]; three repeated iv injections, 1 mg/kg): did not undergo acute tachyphylaxis
- glucose levels in OGTT [5]: did not vary
- total integrated plasma insulin levels (AUC) in OGTT [5]: significantly (p<0.05) lower
